Test results as given in ChEMBL document CHEMBL5038625, “Application of the dual-tail approach for the design and synthesis of novel Thiopyrimidine-Benzenesulfonamide hybrids as selective carbonic anhydrase inhibitors” (Eur J Med Chem, 2022).

Legend:
Carbonic anhydrase 9 = Carbonic anhydrase 9 (Homo sapiens, UniProt Q16790); assay: Inhibition of human CA9 preincubated for 15 mins by phenol red dye based stopped flow CO2 hydration assay
MCF7 [1] = assay: Cell cycle arrest in human MCF7 cells assessed as accumulation at sub G1 phase incubated for 48 hrs by propidium iodide staining based flow cytometric analysis (reference value: 1.09 %); type: functional
MDA-MB-231 [2] = assay: Induction of apoptosis in human MDA-MB-231 cells assessed as viable cells measured after 48 hrs by Annexin-V-FITC/propidium iodide staining based flow cytometry (reference value: 97.93%); type: functional
786-0 = assay: Antiproliferative activity against human 786-0 cells assessed as cell growth inhibition at 10 uM incubated for 24 hrs by sulforhodamine B assay; type: functional; conditions: read-out: GI
SNB-19 = assay: Antiproliferative activity against human SNB-19 cells assessed as cell growth inhibition at 10 uM incubated for 24 hrs by sulforhodamine B assay; type: functional; conditions: read-out: GI
LOX IMVI = assay: Antiproliferative activity against human LOX IMVI cells assessed as cell growth inhibition at 10 uM incubated for 24 hrs by sulforhodamine B assay; type: functional; conditions: read-out: GI
NCI-H23 = assay: Antiproliferative activity against human NCI-H23 cells assessed as cell growth inhibition at 10 uM incubated for 24 hrs by sulforhodamine B assay; type: functional; conditions: read-out: GI
COLO 205 = assay: Antiproliferative activity against human COLA 205 cells assessed as reduction in cell viability incubated for 24 hrs by sulforhodamine B assay; conditions: COLO 205, 24 h
T47D [3] = assay: Antiproliferative activity against human T47D cells assessed as cell growth inhibition at 10 uM incubated for 24 hrs by sulforhodamine B assay; type: functional; conditions: read-out: GI
RXF 393 = assay: Antiproliferative activity against human RXF 393 cells assessed as cell growth inhibition at 10 uM incubated for 24 hrs by sulforhodamine B assay; type: functional; conditions: read-out: GI
PC-3 = assay: Antiproliferative activity against human PC-3 cells assessed as cell growth inhibition at 10 uM incubated for 24 hrs by sulforhodamine B assay; type: functional; conditions: read-out: GI
MCF7 [4] = assay: Induction of apoptosis in human MCF cells assessed as early apoptotic cells measured after 48 hrs by Annexin-V-FITC/propidium iodide staining based flow cytometry (reference value: 0.09%); type: functional
NCI-H226 = assay: Antiproliferative activity against human NCI-H226 cells assessed as cell growth inhibition at 10 uM incubated for 24 hrs by sulforhodamine B assay; type: functional; conditions: read-out: GI
A549 = assay: Antiproliferative activity against human A549 cells assessed as reduction in cell viability incubated for 24 hrs by sulforhodamine B assay; conditions: A549, 24 h
MDA-MB-231 [5] = assay: Cell cycle arrest in human MDA-MB-231 cells assessed as accumulation at sub G1 phase incubated for 48 hrs by propidium iodide staining based flow cytometric analysis (reference value: 0.2 %); type: functional
SF-539 = assay: Antiproliferative activity against human SF-539 cells assessed as cell growth inhibition at 10 uM incubated for 24 hrs by sulforhodamine B assay; type: functional; conditions: read-out: GI
UO-31 = assay: Antiproliferative activity against human UO-31 cells assessed as cell growth inhibition at 10 uM incubated for 24 hrs by sulforhodamine B assay; type: functional; conditions: read-out: GI
KM12 = assay: Antiproliferative activity against human KM12 cells assessed as cell growth inhibition at 10 uM incubated for 24 hrs by sulforhodamine B assay; type: functional; conditions: read-out: GI
OVCAR-5 = assay: Antiproliferative activity against human OVCAR-5 cells assessed as cell growth inhibition at 10 uM incubated for 24 hrs by sulforhodamine B assay; type: functional; conditions: read-out: GI
HCT-116 = assay: Antiproliferative activity against human HCT-116 cells assessed as cell growth inhibition at 10 uM incubated for 24 hrs by sulforhodamine B assay; type: functional; conditions: read-out: GI
MCF7 [6] = assay: Cell cycle arrest in human MCF7 cells assessed as accumulation at G2 phase incubated for 48 hrs by propidium iodide staining based flow cytometric analysis (reference value: 20.73 %); type: functional
NCI/ADR-RES = assay: Antiproliferative activity against human NCI-ADR-RES cells assessed as reduction in cell viability incubated for 24 hrs by sulforhodamine B assay
MDA-MB-231 [7] = assay: Antiproliferative activity against human MDA-MB-231 cells assessed as reduction in cell viability incubated for 24 hrs by sulforhodamine B assay; type: functional, cell-based; conditions: MDA-MB-231, 24 h
HT-29 = assay: Antiproliferative activity against human HT-29 cells assessed as cell growth inhibition at 10 uM incubated for 24 hrs by sulforhodamine B assay; type: functional; conditions: read-out: GI
SK-OV-3 = assay: Antiproliferative activity against human SK-OV-3 cells assessed as cell growth inhibition at 10 uM incubated for 24 hrs by sulforhodamine B assay; type: functional; conditions: read-out: GI
HCT-15 = assay: Antiproliferative activity against human HCT-15 cells assessed as cell growth inhibition at 10 uM incubated for 24 hrs by sulforhodamine B assay; type: functional; conditions: read-out: GI
MCF7 [8] = assay: Induction of apoptosis in human MCF cells assessed as late apoptotic cells measured after 48 hrs by Annexin-V-FITC/propidium iodide staining based flow cytometry (reference value: 0.82%); type: functional
RPMI-8226 = assay: Antiproliferative activity against human RPMI-8226 cells assessed as cell growth inhibition at 10 uM incubated for 24 hrs by sulforhodamine B assay; type: functional; conditions: read-out: GI
MDA-MB-231 [9] = assay: Induction of apoptosis in human MDA-MB-231 cells assessed as early apoptotic cells measured after 48 hrs by Annexin-V-FITC/propidium iodide staining based flow cytometry (reference value: 0.02%); type: functional
SN12C = assay: Antiproliferative activity against human SN12C cells assessed as cell growth inhibition at 10 uM incubated for 24 hrs by sulforhodamine B assay; type: functional; conditions: read-out: GI
DU-145 = assay: Antiproliferative activity against human DU-145 cells assessed as cell growth inhibition at 10 uM incubated for 24 hrs by sulforhodamine B assay; type: functional; conditions: read-out: GI
Hs-578T = assay: Antiproliferative activity against human HS-578T cells assessed as cell growth inhibition at 10 uM incubated for 24 hrs by sulforhodamine B assay; type: functional; conditions: read-out: GI
ACHN = assay: Antiproliferative activity against human ACHN cells assessed as cell growth inhibition at 10 uM incubated for 24 hrs by sulforhodamine B assay; type: functional; conditions: read-out: GI
HCC 2998 = assay: Antiproliferative activity against human HCC 2998 cells assessed as cell growth inhibition at 10 uM incubated for 24 hrs by sulforhodamine B assay; type: functional; conditions: read-out: GI
CCRF-CEM = assay: Antiproliferative activity against human CCRF-CEM cells assessed as cell growth inhibition at 10 uM incubated for 24 hrs by sulforhodamine B assay; type: functional; conditions: read-out: GI
U-251 = assay: Antiproliferative activity against human U-251 cells assessed as cell growth inhibition at 10 uM incubated for 24 hrs by sulforhodamine B assay; type: functional; conditions: read-out: GI
MOLT-4 = assay: Antiproliferative activity against human MOLT-4 cells assessed as cell growth inhibition at 10 uM incubated for 24 hrs by sulforhodamine B assay; type: functional; conditions: read-out: GI
IGROV-1 = assay: Antiproliferative activity against human IGROV-1 cells assessed as cell growth inhibition at 10 uM incubated for 24 hrs by sulforhodamine B assay; type: functional; conditions: read-out: GI
MCF7 [10] = assay: Induction of apoptosis in human MCF cells assessed as necrotic cells measured after 48 hrs by Annexin-V-FITC/propidium iodide staining based flow cytometry (reference value: 0.94%); type: functional
T47D [11] = assay: Antiproliferative activity against human T47D cells assessed as reduction in cell viability incubated for 24 hrs by sulforhodamine B assay; type: functional, cell-based

Compound: COc1ccc(OC)c(-c2nc(SCC(=O)c3ccc(Br)cc3)nc(Nc3ccc(S(N)(=O)=O)cc3)c2C#N)c1
- Ki (Carbonic anhydrase 9): 86.8 nM
- Activity (MCF7 [1]): 35.5%
- Activity (MDA-MB-231 [2]): 87.15%
- inhibition of growth at 10 µM (786-0): 58.6%
- inhibition of growth at 10 µM (SNB-19): 50.1%
- inhibition of growth at 10 µM (LOX IMVI): 67.4%
- inhibition of growth at 10 µM (NCI-H23): 41.6%
- IC50 (COLO 205): 13.3 µM
- inhibition of growth at 10 µM (T47D [3]): 28.9%
- inhibition of growth at 10 µM (RXF 393): 82.7%
- inhibition of growth at 10 µM (PC-3): 64.7%
- Activity (MCF7 [4]): 0.73%
- inhibition of growth at 10 µM (NCI-H226): 50%
- IC50 (A549): 16.5 µM
- Activity (MDA-MB-231 [5]): 11.52%
- inhibition of growth at 10 µM (SF-539): 71.6%
- inhibition of growth at 10 µM (UO-31): 40.8%
- inhibition of growth at 10 µM (KM12): 79.1%
- inhibition of growth at 10 µM (OVCAR-5): 26.7%
- inhibition of growth at 10 µM (HCT-116): 84.6%
- Activity (MCF7 [6]): 50.47%
- IC50 (NCI/ADR-RES): 33.7 µM
- IC50 (MDA-MB-231 [7]): 2400 nM
- inhibition of growth at 10 µM (HT-29): 72.8%
- inhibition of growth at 10 µM (SK-OV-3): 20.1%
- inhibition of growth at 10 µM (HCT-15): 77.9%
- Activity (MCF7 [8]): 3.96%
- inhibition of growth at 10 µM (RPMI-8226): 48.8%
- Activity (MDA-MB-231 [9]): 0.48%
- inhibition of growth at 10 µM (SN12C): 50.9%
- inhibition of growth at 10 µM (DU-145): 44.9%
- inhibition of growth at 10 µM (Hs-578T): 86.6%
- inhibition of growth at 10 µM (ACHN): 44.1%
- inhibition of growth at 10 µM (HCC 2998): 29.1%
- inhibition of growth at 10 µM (CCRF-CEM): 64.7%
- inhibition of growth at 10 µM (U-251): 62.4%
- inhibition of growth at 10 µM (MOLT-4): 71.5%
- inhibition of growth at 10 µM (IGROV-1): 45.3%
- Activity (MCF7 [10]): 7.15%
- IC50 (T47D [11]): 2400 nM
